Test results reported in article PMC7876106 (Scientific Reports, 2021).

System: TRF2 interaction with TERRA
Assay: RNA-ChIP assay of TRF2-TERRA interaction in LOX cells
Type: cell-based
Settings: Homo sapiens, 24 h, read-out: inhibition of TRF2 interaction with TERRA relative to PP control
Method: Mei et al, 2020 TERRA Requires TRF2 GAR Domain […]
blot procedures. Northern blot was performed as previously described with some modifications […]
2. Briefly, 6 µg RNA was denatured in NorthernMax formaldehyde loading dye (Ambion) for 15 […]
min at 65 °C and separated by 1.2% agarose formamide gel in 1X Mops buffer (Ambion) at […]
5V/cm for 2-3 hrs. RNA samples were transferred to GeneScreen Plus blotting membranes […]
(Perkin-Elmer) with 10X SSC and UV cross-linked onto membranes at 125 mJ in UV […]
Stratalinker 2400 (Stratagene). The hybridization was performed using a 32P-labeled TERRA […]
probe in Church buffer (0.5 N Na-phosphate, pH 7.2, 7% SDS, 1 mM EDTA, 1% BSA) for […]
overnight at 50 °C. The blot was washed twice in 0.2 N Na-phosphate, 2% SDS, and 1 mM […]
EDTA at room temperature and once in 0.1 N Na-phosphate, 2% SDS, and 1 mM EDTA at […]
50 °C. Images were collected by phosphor- imager (Amersham Biosciences), and were […]
visualized with a Typhoon 9410 Imager (GE Healthcare) and quantified with ImageQuant TL […]
Genomic DNA was isolated from cells using a genomic DNA purification kit (Promega) and digested with AluI and MboI. Digested genomic DNA was purified by phenol/choloroform extraction and quantified using a Qubit 4 Fluorometer (Thermal Scientific). […] The DNA was transferred to GeneScreen Plus blotting membranes (Perkin-Elmer) and analyzed by Southern blot. […]

Question: Which inhibition at 2 µM does the source give for `CN(C)c1ccc(Nc2c3ccc(NC(=O)CCN4CCCC4)cc3nc3cc(NC(=O)CCN4CCCC4)ccc23)cc1` [BRACO-19] here?
Answer: ~50%

Question: Which inhibition at 2 µM does the source give for `CCc1c(C)c2cc3nc(cc4nc(cc5c(CC)c(C)c(cc1[nH]2)n5C)C(C)=C4CCC(=O)O)C(CCC(=O)O)=C3C` [NMM, N-methyl mesoporphyrin IX] here?
Answer: ~50%
